Like-named read-outs stand apart in the source and are kept apart here.
Columns and labels:
Experiment in all cases: biochemical
Type in all cases: binding
[1] = molecular target: 468 kinases (Homo sapiens, UniProt P11309); conditions: PIM1; read-out: % Inhibition @ 100 nM
[2] = molecular target: 468 kinases (Homo sapiens, UniProt P49137); conditions: MAPKAPK2; read-out: % Inhibition @ 100 nM
[3] = molecular target: 468 kinases (Homo sapiens, UniProt P45983); conditions: JNK1; read-out: % Inhibition @ 100 nM
[4] = molecular target: 468 kinases (Homo sapiens, UniProt P49761); conditions: CLK3; read-out: % Inhibition @ 100 nM
[5] = molecular target: 468 kinases (Homo sapiens, UniProt Q9UBE8); conditions: NLK; read-out: % Inhibition @ 100 nM
[6] = molecular target: 468 kinases (Homo sapiens, UniProt Q13043); conditions: MST1; read-out: % Inhibition @ 100 nM
[7] = molecular target: 468 kinases (Homo sapiens, UniProt O75460); conditions: ERN1; read-out: % Inhibition @ 100 nM
[8] = molecular target: 468 kinases (Homo sapiens, UniProt P00533, DEL746-750); conditions: EGFR(E746-A750del); read-out: % Inhibition @ 100 nM
[9] = molecular target: 468 kinases (Homo sapiens, UniProt Q8IVW4); conditions: CDKL3; read-out: % Inhibition @ 100 nM
[10] = molecular target: 468 kinases (Homo sapiens, UniProt P23443); conditions: S6K1; read-out: % Inhibition @ 100 nM
[11] = molecular target: 468 kinases (Homo sapiens, UniProt Q9H2K8); conditions: TAOK3; read-out: % Inhibition @ 100 nM
[12] = molecular target: 468 kinases (Homo sapiens, UniProt Q9NY57); conditions: YANK2; read-out: % Inhibition @ 100 nM
[13] = molecular target: 468 kinases (Homo sapiens, UniProt O94806); conditions: PRKD3; read-out: % Inhibition @ 100 nM
[14] = molecular target: 468 kinases (Homo sapiens, UniProt P00519, M351T); conditions: ABL1 (M351T)-phosphorylated; read-out: % Inhibition @ 100 nM
[15] = molecular target: 468 kinases (Homo sapiens, UniProt P45985); conditions: MEK4; read-out: % Inhibition @ 100 nM
[16] = molecular target: 468 kinases (Homo sapiens, UniProt P42336); conditions: PIK3CA; read-out: % Inhibition @ 100 nM
[17] = molecular target: 468 kinases (Homo sapiens, UniProt P35590); conditions: TIEI; read-out: % Inhibition @ 100 nM
[18] = molecular target: 468 kinases (Homo sapiens, UniProt P10721, L576P); conditions: KIT(L576P); read-out: % Inhibition @ 100 nM
[19] = molecular target: 468 kinases (Homo sapiens, UniProt P11802); conditions: read-out: % Inhibition @ 100 nM
[20] = molecular target: 468 kinases (Homo sapiens, UniProt P16591); conditions: FER; read-out: % Inhibition @ 100 nM
[21] = molecular target: 468 kinases (Homo sapiens, UniProt Q15303); conditions: ERBB4; read-out: % Inhibition @ 100 nM
[22] = molecular target: 468 kinases (Homo sapiens, UniProt Q13873); conditions: BMPR2; read-out: % Inhibition @ 100 nM
[23] = molecular target: 468 kinases (Homo sapiens, UniProt Q9NYY3); conditions: PLK2; read-out: % Inhibition @ 100 nM
[24] = molecular target: 468 kinases (Homo sapiens, UniProt Q16513); conditions: PKN2; read-out: % Inhibition @ 100 nM
[25] = molecular target: 468 kinases (Homo sapiens, UniProt Q9UQB9); conditions: AURKC; read-out: % Inhibition @ 100 nM
[26] = molecular target: 468 kinases (Homo sapiens, UniProt O60331); conditions: PIPSK1C; read-out: % Inhibition @ 100 nM
[27] = molecular target: 468 kinases (Homo sapiens, UniProt P10721); conditions: KIT; read-out: % Inhibition @ 100 nM
[28] = molecular target: 468 kinases (Homo sapiens, UniProt P00519); conditions: read-out: % Inhibition @ 100 nM
[29] = molecular target: 468 kinases (Homo sapiens, UniProt P10721, V559D); conditions: KIT(V559D); read-out: % Inhibition @ 100 nM
[30] = molecular target: 468 kinases (Homo sapiens, UniProt P54762); conditions: EPHB1; read-out: % Inhibition @ 100 nM
[31] = molecular target: 468 kinases (Homo sapiens, UniProt P00519, T315I); conditions: read-out: % Inhibition @ 100 nM
[32] = molecular target: 468 kinases (Homo sapiens, UniProt P16234); conditions: PDGFRA; read-out: % Inhibition @ 100 nM

Compound	inhibition at 0.1 µM [1] [%]	inhibition at 0.1 µM [2] [%]	inhibition at 0.1 µM [3] [%]	inhibition at 0.1 µM [4] [%]	inhibition at 0.1 µM [5] [%]	inhibition at 0.1 µM [6] [%]	inhibition at 0.1 µM [7] [%]	inhibition at 0.1 µM [8] [%]	inhibition at 0.1 µM [9] [%]	inhibition at 0.1 µM [10] [%]	inhibition at 0.1 µM [11] [%]	inhibition at 0.1 µM [12] [%]	inhibition at 0.1 µM [13] [%]	inhibition at 0.1 µM [14] [%]	inhibition at 0.1 µM [15] [%]	inhibition at 0.1 µM [16] [%]	inhibition at 0.1 µM [17] [%]	inhibition at 0.1 µM [18] [%]	inhibition at 0.1 µM ([19]; CDK4-cyclinD1) [%]	inhibition at 0.1 µM ([19]; CDK4-cyclinD3) [%]	also measured
CCN(CC)CCNC(=O)c1c(C)[nH]c(/C=C2\C(=O)Nc3ccc(CCC(N)=O)cc32)c1C [Compound No. 16, (Z)-5-((5-(3-Amino-3-oxopropyl)-2-oxoindolin-3-ylidene)methyl)-N-(2-(diethylamino)ethyl)-2,4-dimethyl-1H-pyrrole-3-carboxamide]	0	0	7	10	8	0	10	7	0	33	56	0	53	22	97.7	14	14	12	29	16	inhibition at 0.1 µM ([19]; CDK4): 9%; inhibition at 0.1 µM [20]: 0%; inhibition at 0.1 µM [21]: 6%; inhibition at 0.1 µM [22]: 50%; inhibition at 0.1 µM [23]: 19%; inhibition at 0.1 µM [24]: 18%; inhibition at 0.1 µM [25]: 98.4%; inhibition at 0.1 µM [26]: 15%; inhibition at 0.1 µM [27]: 8%; inhibition at 0.1 µM ([28]; ABL1 -nonphosphorylated): 36%; inhibition at 0.1 µM [29]: 0%; inhibition at 0.1 µM [30]: 8%; inhibition at 0.1 µM ([31]; ABL1 (T3151)-nonphosphorylated): 61%; inhibition at 0.1 µM ([31]; ABL1 (T3151)-phosphorylated): 86%; inhibition at 0.1 µM [32]: 55%
CCN(CC)CCNC(=O)c1c(C)[nH]c(/C=C2\C(=O)Nc3ccc(CCO)cc32)c1C [Compound No. 10, (Z)—N-(2-(Diethylamino)ethyl)-5-((5-(2-hydroxyethyl)-2-oxoindolin-3-ylidene)methyl)-2,4-dimethyl-1H-pyrrole-3-carboxamide]	0	0	9	5	5	28	0	32	22	37	31	1	0	24	0	0	2	88	5	0	inhibition at 0.1 µM ([19]; CDK4): 0%; inhibition at 0.1 µM [20]: 12%; inhibition at 0.1 µM [21]: 15%; inhibition at 0.1 µM [22]: 0%; inhibition at 0.1 µM [23]: 0%; inhibition at 0.1 µM [24]: 24%; inhibition at 0.1 µM [25]: 40%; inhibition at 0.1 µM [26]: 32%; inhibition at 0.1 µM [27]: 80%; inhibition at 0.1 µM ([28]; ABL1 -nonphosphorylated): 54%; inhibition at 0.1 µM ([28]; ABL1 -phosphorylated): 44%; inhibition at 0.1 µM [29]: 88%; inhibition at 0.1 µM [30]: 0%; inhibition at 0.1 µM ([31]; ABL1 (T3151)-nonphosphorylated): 56%; inhibition at 0.1 µM ([31]; ABL1 (T3151)-phosphorylated): 91.8%; inhibition at 0.1 µM [32]: 84%

From patent publication US12435059B2, “AMP-activated protein kinase inhibitors and methods of making and using the same” (The Regents of the University of Colorado, priority 2019, dated 2025)
